Measured values from the CheMixHub viscosity set.

Test: xn = mol fraction of the nth substance listed

CCCC#N + CC(C)CO
viscosity [mPa·s], 101.33 kPa
Conditions | x2 = 0.0997 | x2 = 0.2 | x2 = 0.2986 | x2 = 0.3982 | x2 = 0.4962 | x2 = 0.5918 | x2 = 0.7022 | x2 = 0.8004 | x2 = 0.8991
298.15 K | 0.582 | 0.626 | 0.69 | 0.778 | 0.895 | 1.051 | 1.315 | 1.672 | 2.273
308.15 K | 0.516 | 0.551 | 0.6 | 0.667 | 0.756 | 0.874 | 1.069 | 1.323 | 1.742
318.15 K | 0.462 | 0.489 | 0.528 | 0.58 | 0.648 | 0.737 | 0.881 | 1.066 | 1.363

C1=C[C@H]2[C@@H](C1)[C@H]1C=C[C@@H]2C1 + CC(C)O
viscosity [mPa·s], 101.2 kPa
Conditions | x1 = 0.1015 | x1 = 0.1993 | x1 = 0.2999 | x1 = 0.4006 | x1 = 0.4998 | x1 = 0.5999 | x1 = 0.6977 | x1 = 0.7999 | x1 = 0.8995
293.15 K | 2.227 | 2.228 | 2.271 | 2.356 | 2.481 | 2.69 | 2.944 | 3.291 | 3.718
303.15 K | 1.69 | 1.7 | 1.737 | 1.811 | 1.918 | 2.09 | 2.314 | 2.581 | 2.919
313.15 K | 1.303 | 1.322 | 1.363 | 1.435 | 1.535 | 1.689 | 1.869 | 2.109 | 2.394
